# Reference: PubChem BioAssay (NCI)
#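 Dose response: 5 concentrations. Exposure: 48 h. Format: 96-well plates. Endpoint: linear interpolation; highest concentration if not reached. The concentration for full growth arrest is given as TGI.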
# Tests used:
# Test in all cases: NCI tumour cell line growth inhibition, 48 h
# HOP-92 NSCLC = tested on: HOP-92 NSCLC
# SNB-19 CNS = tested on: SNB-19 CNS
# COLO 205 colon = tested on: COLO 205 colon
# MDA-MB-231 breast = tested on: MDA-MB-231 breast
# UO-31 renal = tested on: UO-31 renal
# OVCAR-5 ovarian = tested on: OVCAR-5 ovarian
# SF-539 CNS = tested on: SF-539 CNS
# HL-60(TB) leukemia = tested on: HL-60(TB) leukemia
# UACC-62 melanoma = tested on: UACC-62 melanoma
# ACHN renal = tested on: ACHN renal
Compound,TGI (HOP-92 NSCLC),TGI (SNB-19 CNS),TGI (COLO 205 colon),TGI (MDA-MB-231 breast),TGI (UO-31 renal),TGI (OVCAR-5 ovarian),TGI (SF-539 CNS),TGI (HL-60(TB) leukemia),TGI (UACC-62 melanoma),TGI (ACHN renal)
O[C@H]1[C@@H]2OC[C@@H](O)[C@H](OCc3ccccc3)[C@@](COCc3ccccc3)(O2)[C@@H]1OCc1ccccc1,26.3 µM,30 µM,32.8 µM,30.9 µM,30.6 µM,30 µM,31 µM,68.6 µM,23.5 µM,30.4 µM
Nc1ccc2c(c1)S(=O)(=O)c1cc(N)ccc1-2,> 100 µM,> 100 µM,> 100 µM,> 100 µM,> 100 µM,> 100 µM,> 100 µM,> 100 µM,> 100 µM,> 100 µM
CC(=O)NC1=CC(=O)C=C(Cl)C1=O,> 100 µM,> 100 µM,> 100 µM,> 100 µM,> 100 µM,> 100 µM,> 100 µM,45.7 µM,> 100 µM,> 100 µM
CCOC(=O)C(C(=O)OCC)C(NC(=O)Nc1cc(C(F)(F)F)ccc1OC)(C(F)(F)F)C(F)(F)F,55.8 µM,> 100 µM,32.3 µM,39.7 µM,39.5 µM,> 100 µM,36.2 µM,48.9 µM,88.8 µM,> 100 µM
O=C(CSCC(=O)N/N=C/c1ccncc1)N/N=C/c1ccncc1,> 100 µM,> 100 µM,–,> 100 µM,> 100 µM,> 100 µM,> 100 µM,> 100 µM,> 100 µM,> 100 µM
O=c1c2cc([N+](=O)[O-])cnc2sn1-c1ccc(Br)cc1,54.7 µM,> 100 µM,> 100 µM,73.4 µM,> 100 µM,> 100 µM,> 100 µM,80.7 µM,> 100 µM,> 100 µM
CC(=O)Nc1ccc2c3c(cc(O)c2c1)N(C(=O)CCCCCC(=O)Nc1ccc2c4c(cc(O)c2c1)N(C(=O)OC(C)(C)C)CC4CCl)CC3CCl (stereo not drawn),23.7 µM,> 35 µM,9.88 µM,18.5 µM,> 100 µM,35.5 µM,13.1 µM,> 36.1 µM,3.87 µM,> 100 µM
Cc1ccc2nnc(NS(=O)(=O)c3cc(C)c(Cl)cc3S)n2n1,> 100 µM,> 100 µM,> 100 µM,> 100 µM,> 100 µM,> 100 µM,> 100 µM,> 100 µM,> 100 µM,> 100 µM
COc1cccc(-c2cc(=O)c3cc(N4CCCC4)ccc3[nH]2)c1,> 10 µM,< 0.001 µM,< 0.001 µM,0.598 µM,> 10 µM,> 10 µM,< 0.001 µM,< 0.001 µM,> 10 µM,> 10 µM
Cc1ccc(C(=O)N/N=C(\N=Nc2ccccc2)c2ccc(N(CCC#N)CCC#N)cc2C)cc1,> 100 µM,> 100 µM,> 100 µM,> 100 µM,> 100 µM,> 100 µM,39.9 µM,> 100 µM,> 100 µM,> 100 µM
O=c1ccc2nc3ccc(O)cc3oc-2c1,> 100 µM,> 100 µM,24.9 µM,> 100 µM,> 100 µM,> 100 µM,> 59.8 µM,25.4 µM,5.55 µM,> 100 µM
Nc1c(O)c(C(=O)O)cc2ccccc12,> 100 µM,> 100 µM,64.1 µM,28.8 µM,> 100 µM,41.2 µM,> 100 µM,> 100 µM,31.6 µM,64.3 µM
Cc1cc(C)nc(NS(=O)(=O)c2ccc(NC(=O)c3ccc4nc5ccccc5c(Nc5ccc(S(=O)(=O)Nc6nc(C)cc(C)n6)cc5)c4c3)cc2)n1,> 100 µM,> 100 µM,> 100 µM,53.9 µM,> 100 µM,> 100 µM,> 100 µM,79.1 µM,> 100 µM,> 100 µM
Cc1c(C=C(C#N)C#N)c(=O)n(C)c(=O)n1C,> 100 µM,> 100 µM,> 100 µM,> 100 µM,> 100 µM,> 100 µM,> 100 µM,> 100 µM,> 100 µM,> 100 µM
Cn1c2c(c3c(=O)[nH]ncc31)CCCc1ccccc1-2,41.3 µM,> 100 µM,34.5 µM,> 100 µM,53.1 µM,> 100 µM,> 100 µM,16.3 µM,> 100 µM,98.9 µM
COc1ccc(-c2cc(-c3ccccc3)nc(N)n2)c(O)c1,> 100 µM,> 100 µM,> 100 µM,> 100 µM,> 23.3 µM,> 100 µM,> 100 µM,> 20.6 µM,> 100 µM,> 100 µM
C/C(CC(O)(C(F)(F)F)C(F)(F)F)=N/Nc1ccc([N+](=O)[O-])cc1[N+](=O)[O-],4.7 µM,> 10 µM,3.85 µM,6.58 µM,> 10 µM,–,> 10 µM,7.94 µM,> 10 µM,> 10 µM
CCO/N=C(/CC)c1ccc(Br)s1,> 100 µM,> 100 µM,> 100 µM,> 100 µM,> 100 µM,> 100 µM,> 100 µM,> 100 µM,> 100 µM,> 100 µM
